Where two headings read alike, the source gives them in different places. Blank lines part the entries; values can stand above or below the molecule they belong to.
How the values were obtained:
[1] = Solubility / state of the active ingredient in the preparation (equimolar salt or enhancer); assay type: physicochemical; conditions: solubility of MZR in the equimolar salt of the basic compound a) with isostearic acid or linoleic acid
[2] = Franz cell test of MZR preparations, artificial skin; conditions: equimolar salt of choline with the acidic compound b) as enhancer
Yucatan Micropig Skin = conditions: Non Patent Literature 1, at maximum; cited from earlier work
[3] = tested on: hairless mouse skin (Laboskin)
[4] = cited from earlier work
[5] = cited from earlier work; remark: listed apart in the source
[6] = subcutaneous administration to rats; cited from earlier work
[7] = partition coefficient between water and 1-octanol; cited from earlier work

- MZR dissolution [1]: Insoluble
SMILES: CCn1cc[n+](C)c1.O=S(=O)([O-])C(F)(F)F

SMILES: COP(=O)([O-])OC.Cn1cc[n+](C)c1
- MZR dissolution [1]: Insoluble

- Transdermal penetrability of MZR (artificial skin) [2]: Penetrated
SMILES: CC(O)C(=O)O (racemic) [DL-lactic acid]

SMILES: Nc1nc2c(ncn2COCCO)c(=O)[nH]1 [ACV, acyclovir]
- transdermal penetration amount of ACV for 24 hours (Yucatan Micropig Skin): ≤ 0.5 μg/cm^2

- Transdermal penetrability of MZR (hairless mouse) [3]: Not penetrated
SMILES: CC(=O)O [Acetic acid]

- MZR dissolution [1]: Insoluble
SMILES: Nc1ncnc2[nH]cnc12 [Adenine]

SMILES: O=C(O)c1ccccc1 [Benzoic acid]
- Transdermal penetrability of MZR (artificial skin) [2]: Penetrated

SMILES: CC(O)CNCC(C)O (centres unmarked) [DIPA]
- MZR dissolution [1]: Insoluble
- Transdermal penetrability of MZR [3]: Not penetrated

- Transdermal penetrability of MZR (hairless mouse) [3]: Penetrated
SMILES: CCCCCCCCCCCC(=O)O [Dodecanoic acid]
- pKa [4]: 5.30
- Water solubility ([5]; 20° C.): 5.5 mg/100 g (20° C.)

SMILES: O=C(O)/C=C/C(=O)O [Fumaric acid]
- Water solubility ([5]; 25° C.): 0.63 g/100 mL-water

SMILES: O=C(O)CCCC(=O)O [Glutaric acid]
- pKa [4]: 4.34
- pKa ([4]; second value): 5.42
- Water solubility ([5]; 20° C.): 430 g/L (20° C.)
- Transdermal penetrability of MZR (artificial skin) [2]: Penetrated

- Transdermal penetrability of MZR (artificial skin) [2]: Penetrated
SMILES: O=C(O)CO [Glycolic acid]

- MZR dissolution [1]: Dissolved
- Transdermal penetrability of MZR [3]: Penetrated
SMILES: N=C(N)N [Guanidine]

- MZR dissolution [1]: Dissolved
- Transdermal penetrability of MZR [3]: Penetrated
SMILES: NCCc1c[nH]cn1 [Histamine]

SMILES: CC(C)CCCCCCCCCCCCCCC(=O)O [Isostearic acid]
- pKa [4]: 4.90

- Transdermal penetrability of MZR (hairless mouse) [3]: Penetrated
SMILES: CCCCC/C=C\C/C=C\CCCCCCCC(=O)O [Linoleic acid]

SMILES: NC(=O)c1ncn([C@@H]2O[C@H](CO)[C@@H](O)[C@H]2O)c1O [MZR, mizoribine]
- rate of penetration ([3]; hairless, mouse): approximately 30%
- no-observed-adverse-effect level (NOAEL) [6]: 5 mg/kg
- Log P [7]: −1.9

SMILES: O=C(O)/C=C\C(=O)O [Maleic acid]
- Water solubility ([5]; 25° C.): 78 g/100 mL (25° C.)

- Transdermal penetrability of MZR (hairless mouse) [3]: Penetrated
SMILES: CCCCCCCCCCCCCC(=O)O [Myristic acid]
- pKa [4]: 4.90
- Water solubility ([5]; at 18° C.): <0.1 g/100 mL at

- Transdermal penetrability of MZR (hairless mouse) [3]: Penetrated
SMILES: CCCCCCCC/C=C\CCCCCCCC(=O)O [Oleic acid]
- Water solubility ([5]; in words): negligible

SMILES: CCCCCCCCCCCCCCCC(=O)O [Palmitic acid]
- pKa [4]: 4.75

SMILES: CCCCCCCCCCCCCCCCCC(=O)O [Stearic acid]
- pKa [4]: 4.75

- Transdermal penetrability of MZR (hairless mouse) [3]: Not penetrated
SMILES: O=C(O)CCC(=O)O [Succinic acid]
- Log P [7]: (LogP = −0.6)

SMILES: CC(O)CN(CC(C)O)CC(C)O (centres unmarked) [TIPA]
- MZR dissolution [1]: Insoluble

- Transdermal penetrability of MZR (hairless mouse) [3]: Not penetrated
SMILES: COc1cc(C(O)C(=O)O)ccc1O (centres unmarked) [Vanillylmandelic acid]
- pKa [4]: 3.11
- Water solubility ([5]; H2O): H2O: ~50 mg/mL

- Transdermal penetrability of MZR [3]: Penetrated
SMILES: C[N+](C)(C)CCO [choline]
- Log P [7]: (LogP = −0.4

SMILES: O=P(O)(O)C(O)(Cc1cccnc1)P(=O)(O)O [risedronate]
- Log P [7]: −3.5

SMILES: CCCCc1ccc(O)cc1O [rucinol]
- Log P [7]: 2.4

SMILES: N[C@@H](CO)C(=O)O [serine]
- Log P [7]: −3.1

SMILES: CC(C)NCC(O)c1ccc(NS(C)(=O)=O)cc1 (centres unmarked) [sotalol]
- Log P [7]: 0.2

SMILES: C=CC[C@@H]1/C=C(\C)C[C@H](C)C[C@H](OC)[C@H]2O[C@@](O)(C(=O)C(=O)N3CCCC[C@H]3C(=O)O[C@H](/C(C)=C/[C@@H]3CC[C@@H](O)[C@H](OC)C3)[C@H](C)[C@@H](O)CC1=O)[C@H](C)C[C@@H]2OC [tacrolimus]
- Log P [7]: 2.7

SMILES: CCOC(=O)[C@H](CCc1ccccc1)N[C@H]1CS[C@H](c2cccs2)CN(CC(=O)O)C1=O [temocapril]
- Log P [7]: 1

SMILES: COc1cc2nc(N3CCN(C(=O)C4CCCO4)CC3)nc(N)c2cc1OC (centres unmarked) [terazosin]
- Log P [7]: 1.4

SMILES: NCCS(=O)(O)=S [thiotaurine]
- Log P [7]: −0.1

SMILES: c1ccc(CC2=NCCN2)cc1 [tolazoline]
- Log P [7]: 2.6

SMILES: Cc1cccc(Nc2ccncc2S(=O)(=O)NC(=O)NC(C)C)c1 [torasemide]
- Log P [7]: 2.7

SMILES: CCOC(=O)[C@H](CCc1ccccc1)N[C@@H](C)C(=O)N1[C@H](C(=O)O)C[C@H]2CCCC[C@@H]21 [trandolapril]
- Log P [7]: 2

SMILES: NC[C@H]1CC[C@H](C(=O)O)CC1 [tranexamic acid]
- Log P [7]: −2

SMILES: Nc1nc(N)c2nc(-c3ccccc3)c(N)nc2n1 [triamterene]
- Log P [7]: 1

SMILES: NS(=O)(=O)c1cc2c(cc1Cl)NC(C(Cl)Cl)NS2(=O)=O (centres unmarked) [trichlormethiazide]
- Log P [7]: 0.6

SMILES: N[C@@H](Cc1c[nH]c2ccccc12)C(=O)O [tryptophan]
- Log P [7]: −1.1

SMILES: COc1ccccc1N1CCN(CCCNc2cc(=O)n(C)c(=O)n2C)CC1 [urapidil]
- Log P [7]: 1.5

SMILES: COc1ccc(C(=O)N2CCN(c3ccc4c(c3)CCC(=O)N4)CC2)cc1OC [vesnarinone]
- Log P [7]: 2.1

SMILES: C[N+](C)(C)CCOP(=O)([O-])OC[C@H](O)CO [αGPC]
- MZR dissolution [1]: Insoluble
- Transdermal penetrability of MZR [3]: Not penetrated

— US20170239173A1, “TRANSDERMAL ABSORPTION ENHANCER AND TRANSDERMAL ABSORPTION ENHANCEMENT AID” (ASAHI KASEI KABUSHIKI KAISHA, priority 2014, published 2017)
